# Results published in patent US8318419B2, “Antiviral screening method to identify inhibitors of phosphatidylinositol 4,5-bisphosphate [PI(4,5)P2] binding to the HIV gag matrix (MA) protein” (priority 2007, dated 2012).
# Several values for one entry are separate records, joined by “and”; a condition that tells them apart may be missing. Equal entries are not always repeated. Where two headings read alike, the source gives them in different places.
# Columns and labels:
# [1] = molecular target: T1, HIV-1 myrMA (Human immunodeficiency virus type 1 group M subtype B, UniProt P12493); conditions: for binding to myrMA (changes in NMR spectra upon titration): 1H-15N HSQC titration; for triggering of myristate exposure: NMR; for Kd: read-out: dissociation constant (Kd), fit to 1:1 binding isotherms, 35° C., pH 5.5
# Description: (§1) HIV-1 myrMA and myr(−)MA proteins were prepared as described (19, 37). Phosphoinositides PI(4,5)P2, di-C4-PI(4,5)P2, di-C8-PI(4,5)P2, di-C4-PI, di-C4-PI(3)P, di-C4-PI(4)P, di-C4-PI(5)P, di-C4-PI(3,5)P2, di-C8-PI(3,4,5)P2, and di-C4-PI (Echelon, Salt Lake City, Utah) and di-C4-phosphatidylcholine (Avanti Polar Lipids) were obtained commercially and used without further purification. Samples for all NMR experiments were prepared in 50 mM sodium phosphate at pH 5.5 and 5 mM DTT.
# (§2) NMR data [Bruker DRX (Billerica, Mass.); 800 MHz ^1H and DMX 600 MHz ^1H spectrometers equipped with cryoprobes] were obtained from a combination of 2D, 3D, and 4D NOESY data, for combinations of natural abundance; ^15N-, ^15N-, and ^13C-labeled protein samples (35° C.). Protein signals were assigned as described (19, 37). Phosphoinositide signals were assigned from 2D heteronuclear multiple-quantum coherence (HMQC), heteronuclear multiple bond correlation (HMBC), NOESY, total correlation spectroscopy (TOCSY), and COSY data (the ^1H and ^13C NMR signals of the 1′- and 2′-acyl chains were resolved in the 2D spectra), and intra- and intermolecular ^1H-^1H NOEs were assigned from 2D (^1H-^1H), 3D (^13C-, ^15N-, and ^13C-edited/^12C-double-half-filtered), and 4D ([…] and ^13C/^13C-edited) NOESY data (39, 40). Binding isotherms from ^1H-^15N NMR HSQC titration experiments were calculated with ORIGIN 7.0 software (Microcal Software, Northampton, Mass.).
# [2] = molecular target: T1, HIV-1 myrMA; assay type: binding; set-up: mediated by the matrix (MA) domain of Gag, a 132-residue polypeptide containing an N-terminal myristyl group; made in house; conditions: for Kd: fit to 1:1 binding isotherms, read-out: dissociation constant (Kd)
# Description: as §1, §2
Compound,binding to myrMA (changes in NMR spectra upon titration) [1],triggering of myristate exposure ([1]; myrMA),further results
CCCC(=O)OC[C@H](COP(=O)(O)O[C@@H]1[C@H](O)[C@H](OP(=O)(O)O)[C@@H](O)[C@H](O)[C@H]1O)OC(=O)CCC [di-C4-PI(3)P],No detectable changes,–,–
"CCCC(=O)OC[C@H](COP(=O)(O)O[C@H]1[C@H](O)[C@@H](OP(=O)(O)O)[C@H](OP(=O)(O)O)[C@@H](OP(=O)(O)O)[C@H]1O)OC(=O)CCC [di-C4-PI(3,4,5)P3]",–,triggers myristate exposure,Kd ([1]; myrMA): 81 ± 18 µM
"CCCC(=O)OCC(COP(=O)(O)OC1C(O)C(OP(=O)(O)O)C(O)C(OP(=O)(O)O)C1O)OC(=O)CCC (stereo not drawn) [di-C4-PI(3,5)P2]",does not bind,does not bind myrMA or trigger myristate exposure,–
CCCC(=O)OCC(COP(=O)(O)OC1C(O)C(O)C(OP(=O)(O)O)C(O)C1O)OC(=O)CCC (stereo not drawn) [di-C4-PI(4)P],No detectable changes,–,–
"CCCC(=O)OC[C@H](COP(=O)(O)O[C@@H]1[C@H](O)[C@H](O)[C@@H](OP(=O)(O)O)[C@H](OP(=O)(O)O)[C@H]1O)OC(=O)CCC [di-C4-PI(4,5)P2, di-butyryl-PI(4,5)P2]",–,causes extrusion of the myristyl group,"chemical-shift changes ΔδHN of group 1 residues ([1]; myrMA, upon addition of the lipid): 0.1-0.8 ppm; Kd ([1]; myrMA): 150 ± 30 µM; Kd [2]: 240 ± 60 µM"
CCCC(=O)OCC(COP(=O)(O)OC1C(O)C(O)C(O)C(OP(=O)(O)O)C1O)OC(=O)CCC (stereo not drawn) [di-C4-PI(5)P],No detectable changes,–,–
CCCC(=O)OC[C@H](COP(=O)(O)OC1[C@H](O)[C@H](O)C(O)[C@H](O)[C@H]1O)OC(=O)CCC (stereo partly drawn) [di-C4-PI],No detectable changes,–,–
CCCC(=O)OC[C@H](COP(=O)([O-])OCC[N+](C)(C)C)OC(=O)CCC [di-C4-phosphatidylcholine],does not bind,–,–
"CCCCCCCC(=O)OC[C@H](COP(=O)(O)O[C@@H]1[C@H](O)[C@H](O)[C@@H](OP(=O)(O)O)[C@H](OP(=O)(O)O)[C@H]1O)OC(=O)CCCCCCC [di-C8-PI(4,5)P2, di-octyl-PI(4,5)P2]",–,–,"affinity for myr(−)MA relative to di-C4-PI(4,5)P2 [2]: 3 fold and > 3 fold; Kd [2]: 83 ± 4 µM"
PI(3)P,do not bind MA with significant affinity,do not bind MA with significant affinity or trigger myristate exposure,–
"PI(3,5)P2",do not bind MA with significant affinity,do not bind MA with significant affinity or trigger myristate exposure,–
PI(4)P,do not bind MA with significant affinity,do not bind MA with significant affinity or trigger myristate exposure,–
PI(5)P,do not bind MA with significant affinity,–,–
"phosphatidylinositol (PI)4,5-bisphosphate [PI(4,5)P2]",binds directly,triggers myristate exposure,–
